Laboratory results as given in patent US11771694B2, “Arylamide compounds for treatment and prevention of viral infections” (priority 2020, dated 2023).
Values after ≈ are worked out from the molar mass of the structure shown. Values joined by “and” are separate entries in the source; they are usually repeats but may differ in a detail not shown here. Equal values may be shown once. Read-outs that look alike come from different tables or passages of the source.

Legend:
Haemophilus influenzae = assay: Broth microdilution MIC; format: cell-based; conditions: 2-3 isolates/organism, read-out: MIC
LPS-induced IL-6 release = assay: LPS-induced IL-6 release, NR8383 cells, ELISA; format: cell-based; conditions: Rattus norvegicus, 8-hour exposure, read-out: IC50, inhibition of LPS-induced IL-6 release
[1] = tested on: luciferase-expressing pseudotyped virus (rVSV) containing the SARS-CoV-2 spike protein; format: cell-based
[2] = tested on: embryonic mouse cell line (NIH/3T3)
[3] = tested on: stationary phase cultures of MSSA and MRSA; assay: Time-kill against stationary phase cultures of MSSA and MRSA; format: cell-based, Staph. aureus; conditions: stationary phase MSSA and MRSA; 2×MIC
Strept. pyogenes = assay: Broth microdilution MIC; format: cell-based; conditions: Streptococcus pyogenes; Strept. pyogenes; 2-3 isolates/organism; read-out: MIC
Acinetobacter spp. = assay: Broth microdilution MIC; format: cell-based; conditions: 2-3 isolates/organism
Citrobacter fruendi = assay: Broth microdilution MIC; format: cell-based; conditions: Citrobacter fruendi; 2-3 isolates/organism; read-out: MIC
SARS-CoV-2 [4] = assay: SARS-CoV-2 testing in Caco-2 cells and primary lung fibroblasts; format: cell-based; conditions: Caco-2 cells and primary lung fibroblasts from human donors; data not shown
SARS-CoV-2 [5] = conditions: Calu-3; 10 μM; 24 hpi
Vero cells = conditions: 24 hours
[6] = tested on: LPS-induced TNF-α release; assay: LPS-induced TNF-α release, THP-1 cells, ELISA; format: cell-based; conditions: Homo sapiens, 8-hour exposure, read-out: IC50, inhibition of LPS-induced TNF-α release
Serratia marcescens = assay: Broth microdilution MIC; format: cell-based; conditions: 2-3 isolates/organism, read-out: MIC
[7] = tested on: LPS-induced TNF-α release; assay: LPS-induced TNF-α release, NR8383 cells, ELISA; format: cell-based; conditions: Rattus norvegicus, 8 h; read-out: IC50, inhibition of LPS-induced TNF-α release
[8] = tested on: Venezuelan equine encephalitis virus (VEEV) TC83; format: cell-based; conditions: U87MG cells; 10 μM; virus treated only; 24 hpi
Citrobacter koseri = assay: Broth microdilution MIC; format: cell-based; conditions: 2-3 isolates/organism, read-out: MIC
Strept. agalactiae = assay: Broth microdilution MIC; format: cell-based; conditions: Streptococcus agalactiae; Strept. agalactiae; 2-3 isolates/organism; read-out: MIC
[9] = tested on: Ulcerative Proctosigmoiditis/Ulcerative Proctitis (UP/UPS); assay: Phase 2 study CTIX-BRI-206 in Ulcerative Proctosigmoiditis/Ulcerative Proctitis; format: in vivo, human
From the text: Inflammatory biomarkers IL-1β and IL-6 were reduced in colonic tissue biopsies collected at Week 6 (Day 42) compared to those biopsies collected at baseline (FIG. 20, Panel B).

HCoV-NL63 = assay: Virus yield reduction assay, HCoV-NL63 on Vero cells; format: cell-based; conditions: Human coronavirus NL63, 48 hours post-infection
Protocol: For these assays, brilacidin was included during viruses infection and post infection stages. The EC50 values were calculated from best-fit dose response curves with variable slope in Prism 8.

Staph. aureus (MRSA) = assay: Broth microdilution MIC; format: cell-based; conditions: Staphylococcus aureus; Staph. aureus (MRSA); 2-3 isolates/organism; read-out: MIC
[10] = tested on: mammalian cells (RBCs, 3T3, HepG2); format: cell-based
[11] = tested on: Rift Valley fever virus (RFFV); format: cell-based; conditions: Vero; 10, 25 and 50 μM; virus treated only; 24 hpi
[12] = tested on: S. aureus and coagulase-negative staphylococci; assay: Broth microdilution MIC, defined phenotypes in Staphylococcus species
LPS-induced IL-8 release = assay: LPS-induced IL-8 release, THP-1 cells, ELISA; format: cell-based; conditions: Homo sapiens, 8-hour exposure, read-out: IC50, inhibition of LPS-induced IL-8 release
human PDE3A = human PDE3A (Homo sapiens, UniProt Q14432); assay: PDE-Glo phosphodiesterase assay, PDE3A; format: biochemical; conditions: 1 μM cAMP substrate; read-out: IC50, inhibition of human PDE3A
Chain of human PDE3A (Q14432 whole entry): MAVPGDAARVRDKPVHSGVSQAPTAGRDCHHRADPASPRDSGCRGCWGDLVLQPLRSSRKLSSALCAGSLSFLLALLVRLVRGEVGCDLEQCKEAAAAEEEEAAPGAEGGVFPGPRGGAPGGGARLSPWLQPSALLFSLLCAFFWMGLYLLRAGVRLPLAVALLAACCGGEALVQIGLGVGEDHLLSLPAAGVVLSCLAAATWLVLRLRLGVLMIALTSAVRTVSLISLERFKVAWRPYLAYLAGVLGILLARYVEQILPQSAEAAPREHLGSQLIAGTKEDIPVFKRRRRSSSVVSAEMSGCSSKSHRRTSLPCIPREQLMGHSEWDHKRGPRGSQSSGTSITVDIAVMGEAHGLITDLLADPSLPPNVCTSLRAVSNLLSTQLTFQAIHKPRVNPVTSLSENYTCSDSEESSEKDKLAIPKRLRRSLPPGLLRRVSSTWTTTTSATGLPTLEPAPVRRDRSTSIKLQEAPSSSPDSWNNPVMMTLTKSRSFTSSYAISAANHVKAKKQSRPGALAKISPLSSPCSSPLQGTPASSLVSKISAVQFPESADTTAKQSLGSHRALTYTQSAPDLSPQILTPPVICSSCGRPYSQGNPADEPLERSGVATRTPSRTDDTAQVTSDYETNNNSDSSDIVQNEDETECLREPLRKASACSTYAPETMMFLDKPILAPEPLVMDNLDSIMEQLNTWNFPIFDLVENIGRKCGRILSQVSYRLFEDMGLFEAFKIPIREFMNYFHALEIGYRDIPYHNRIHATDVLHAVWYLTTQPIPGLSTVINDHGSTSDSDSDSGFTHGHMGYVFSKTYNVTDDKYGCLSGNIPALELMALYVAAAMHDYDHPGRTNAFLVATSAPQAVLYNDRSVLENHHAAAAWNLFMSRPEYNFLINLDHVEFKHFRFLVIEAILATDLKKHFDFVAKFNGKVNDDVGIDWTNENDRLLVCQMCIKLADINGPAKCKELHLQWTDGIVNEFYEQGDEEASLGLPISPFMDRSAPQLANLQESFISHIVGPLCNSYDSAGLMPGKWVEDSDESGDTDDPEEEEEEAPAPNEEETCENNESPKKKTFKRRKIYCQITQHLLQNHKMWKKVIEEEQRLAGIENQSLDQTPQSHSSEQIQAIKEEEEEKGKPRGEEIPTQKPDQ

`N=C(N)NCCCCC(=O)Nc1cc(C(F)(F)F)cc(NC(=O)c2cc(C(=O)Nc3cc(C(F)(F)F)cc(NC(=O)CCCCNC(=N)N)c3OC3CCNC3)ncn2)c1OC1CCNC1` (centres unmarked) [brilacidin] was tested, and the MIC (Haemophilus influenzae) was 4 to 8 µg/mL (≈ 4.27 to 8.54 µM), the IC50 (LPS-induced IL-6 release) was 274 nM and the “intracellular spike protein signal” value [1] was “decreased intracellular spike protein signal”. The “Selectivity (EC50/MIC) 3T3” value [2] was 430, the “time-kill at >10^3 Log10 Reductions” value [3] was ≤ 2 hours and the MIC (Strept. pyogenes) was 1 to 4 µg/mL (≈ 1.07 to 4.27 µM). For the same molecule, the MIC (Acinetobacter spp.) was 4 µg/mL (≈ 4.27 µM), the MIC (Citrobacter fruendi) was 2 to 4 µg/mL (≈ 2.13 to 4.27 µM) and the “inhibitory properties in ACE2 positive cell lines” value (SARS-CoV-2 [4]) was “supported brilacidin's inhibitory properties”. For the same molecule, the “decrease in the viral genomic copies” value (SARS-CoV-2 [5]) was 33%, the “cell viability compared to the DMSO vehicle control” value (Vero cells; concentrations higher than 40 μM) was “dose-dependent, statistically significant decrease in cell viability” and the “cell viability compared to the DMSO vehicle control” value (Vero cells; up to 40 μM) was “did not affect cell viability”. It also gave an IC50 [6] of 23400 nM, an MIC (Serratia marcescens) of 32 µg/mL (≈ 34.2 µM) and an IC50 [7] of 442 nM. The “infectious viral titer compared to the DMSO-control” value [8] was “statistically significant reduction”, the MIC (Citrobacter koseri) was 1 to 2 µg/mL (≈ 1.07 to 2.13 µM) and the MIC (Strept. agalactiae) was 2 µg/mL (≈ 2.13 µM). The “inflammatory biomarkers IL-1β and IL-6 in colonic tissue biopsies” value ([9]; Week 6 (Day 42) compared to baseline) was “reduced”, the “clinical remission (with Endoscopic response), subjects” value ([9]; each cohort (50 mg, 100 mg, 200 mg daily retention enema), after 6 weeks) was > 50% and the EC50 (HCoV-NL63) was 2450 ± 52 nM. For the same molecule, the MIC (Staph. aureus (MRSA)) was 0.5 to 1 µg/mL (≈ 0.534 to 1.07 µM), the “folds more selective than natural HDPs” value [10] was 50 to 100 folds and the “inhibition compared to the DMSO-control” value [11] was “dose-dependent inhibition”. For the same molecule, the “Brilacidin MIC” value ([12]; DAP-NS, OXA-R, 5 isolates) was 0.5-2, the “Brilacidin MIC” value ([12]; Drug-Susceptible, 217 isolates) was 0.25-1 and the “Brilacidin MIC” value ([12]; LZD, OXA-R, 5 isolates) was 0.5-1. The “Brilacidin MIC” value ([12]; OXA-R, 161 isolates) was 0.25-2, the “Brilacidin MIC” value ([12]; VRSA/VISA, DAP-NS, OXA-R, 3 isolates) was 0.5-1 and the “Brilacidin MIC” value ([12]; VRSA/VISA, OXA-R, 7 isolates) was 0.5-1. The IC50 (LPS-induced IL-8 release) was 10800 nM and the IC50 (human PDE3A) was ~1800 nM and 1800 nM.
